# Data reported in US8513411B2, “Tetrahydro-imidazo[1,5-α] pyrazine derivatives, preparation process and medicinal use thereof” (Jiangsu Hengrui Medicine Co., Ltd., priority 2007, dated 2013).
# Where a name gives a salt, the structure may show the parent alone.
# Biological target: DPP-IV enzyme (Homo sapiens, UniProt P27487)
# Assay: Assay for determining DPP-IV inhibitory activity (DPP-IV-Glo luminescence)
# Description: IC50 was determined by a NovoStar ELIASA (BMG Co. German);
# The definition of inhibitory rate: [1−(S−B)/(N−B)]*100%
# Sequence of DPP-IV enzyme (P27487 whole entry): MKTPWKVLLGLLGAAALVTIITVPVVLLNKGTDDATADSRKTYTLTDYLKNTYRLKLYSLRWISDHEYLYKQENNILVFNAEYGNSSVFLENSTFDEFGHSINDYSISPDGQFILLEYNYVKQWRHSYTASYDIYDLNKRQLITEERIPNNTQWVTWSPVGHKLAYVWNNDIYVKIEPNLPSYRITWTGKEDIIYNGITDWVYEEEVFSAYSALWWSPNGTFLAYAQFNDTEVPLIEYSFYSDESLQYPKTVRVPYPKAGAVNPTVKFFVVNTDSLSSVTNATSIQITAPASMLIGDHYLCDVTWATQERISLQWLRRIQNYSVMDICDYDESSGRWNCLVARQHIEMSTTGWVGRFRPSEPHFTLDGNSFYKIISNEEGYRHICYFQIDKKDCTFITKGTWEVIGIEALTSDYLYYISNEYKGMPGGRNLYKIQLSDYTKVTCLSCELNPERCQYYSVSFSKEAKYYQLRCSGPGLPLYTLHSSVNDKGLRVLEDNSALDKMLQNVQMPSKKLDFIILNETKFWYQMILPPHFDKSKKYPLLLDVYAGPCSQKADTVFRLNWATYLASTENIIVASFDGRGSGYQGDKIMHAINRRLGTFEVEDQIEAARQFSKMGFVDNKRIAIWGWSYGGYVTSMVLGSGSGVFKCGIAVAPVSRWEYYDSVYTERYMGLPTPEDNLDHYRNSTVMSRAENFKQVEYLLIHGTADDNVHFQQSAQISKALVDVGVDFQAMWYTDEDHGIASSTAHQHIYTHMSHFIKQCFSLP
row,IC50 [µM],Compound
1,0.008,"CS(=O)(=O)CCNC(=O)c1nc(C(F)(F)F)n2c1CN(C(=O)C[C@H](N)Cc1cc(F)c(F)cc1F)CC2 [Example 2, (R)-7-[3-Amino-4-(2,4,5-trifluoro-phenyl)-butyryl]-3-trifluoromethyl-5,6,7,8-tetrahydro-imidazo[1,5-a]pyrazine-1-carboxylic acid (2-methanesulfonyl-ethyl)-amide hydrochloride]"
2,0.089,"N[C@@H](CC(=O)N1CCn2c(C(F)(F)F)nc(C(=O)N3CCOCC3)c2C1)Cc1cc(F)c(F)cc1F [Example 3, (R)-3-Amino-1-[1-(morpholine-4-carbonyl)-3-trifluoromethyl-5,6-dihydro-8H-imidazo[1,5-a]pyrazin-7-yl]-4-(2,4,5-trifluoro-phenyl)-butan-1-one hydrochloride]"
3,0.022,"N#CCNC(=O)c1nc(C(F)(F)F)n2c1CN(C(=O)C[C@H](N)Cc1cc(F)c(F)cc1F)CC2 [Example 4, (R)-7-[3-Amino-4-(2,4,5-trifluoro-phenyl)-butyryl]-3-trifluoromethyl-5,6,7,8-tetrahydro-imidazo[1,5-a]pyrazine-1-carboxylic acid cyanomethyl-amide hydrochloride]"
4,0.027,"CN1CCN(C(=O)c2nc(C(F)(F)F)n3c2CN(C(=O)C[C@H](N)Cc2cc(F)c(F)cc2F)CC3)CC1 [Example 5, (R)-3-Amino-1-[1-(4-methyl-piperazine-1-carbonyl)-3-trifluoromethyl-5,6-dihydro-8H-imidazo[1,5-a]pyrazin-7-yl]-4-(2,4,5-trifluoro-phenyl)-butan-1-one dihydrochloride]"
5,0.031,"N[C@@H](CC(=O)N1CCn2c(C(F)(F)F)nc(C(=O)N3CCS(=O)(=O)CC3)c2C1)Cc1cc(F)c(F)cc1F [Example 6, (R)-3-Amino-1-[1-(1,1-dioxo-thiomorpholine-4-carbonyl)-3-trifluoromethyl-5,6-dihydro-8H-imidazo[1,5-a]pyrazin-7-yl]-4-(2,4,5-trifluoro-phenyl)-butan-1-one hydrochloride]"
6,0.025,"NC(=O)C1CCN(C(=O)c2nc(C(F)(F)F)n3c2CN(C(=O)C[C@H](N)Cc2cc(F)c(F)cc2F)CC3)CC1 [Example 7, (R)-1-{7-[3-Amino-4-(2,4,5-trifluoro-phenyl)-butyryl]-3-trifluoromethyl-5,6,7,8-tetrahydro-imidazo[1,5-a]pyrazine-1-carbonyl}-piperidine-4-carboxylic acid amide hydrochloride]"
7,0.008,"CNC(=O)c1nc(C(F)(F)F)n2c1CN(C(=O)C[C@H](N)Cc1cc(F)c(F)cc1F)CC2 [Example 8, (R)-7-[3-Amino-4-(2,4,5-trifluoro-phenyl)-butyryl]-3-trifluoromethyl-5,6,7,8-tetrahydro-imidazo[1,5-a]pyrazine-1-carboxylic acid methylamide hydrochloride]"
8,0.075,"CN(C)C(=O)c1nc(C(F)(F)F)n2c1CN(C(=O)C[C@H](N)Cc1cc(F)c(F)cc1F)CC2 [Example 9, (R)-7-[3-Amino-4-(2,4,5-trifluoro-phenyl)-butyryl]-3-trifluoromethyl-5,6,7,8-tetrahydro-imidazo[1,5-a]pyrazine-1-carboxylic acid dimethylamide hydrochloride]"
9,0.021,"N[C@@H](CC(=O)N1CCn2c(C(F)(F)F)nc(C(=O)O)c2C1)Cc1cc(F)c(F)cc1F [Example 10, (R)-7-[3-Amino-4-(2,4,5-trifluoro-phenyl)-butyryl]-3-trifluoromethyl-5,6,7,8-tetrahydro-imidazo[1,5-a]pyrazine-1-carboxylic acid hydrochloride]"
10,0.216,"N[C@@H]1CCCN(C(=O)c2nc(C(F)(F)F)n3c2CN(C(=O)C[C@H](N)Cc2cc(F)c(F)cc2F)CC3)C1 [Example 11, (R)-3-Amino-1-[1-(3-amino-piperidine-1-carbonyl)-3-trifluoromethyl-5,6-dihydro-8H-imidazo[1,5-a]pyrazin-7-yl]-4-(2,4,5-trifluoro-phenyl)-butan-1-one dihydrochloride]"
11,0.059,"N[C@@H](CC(=O)N1CCn2c(C(F)(F)F)nc(C(=O)N3CCCC3)c2C1)Cc1cc(F)c(F)cc1F [Example 12, (R)-3-Amino-1-[1-(pyrrolidine-1-carbonyl)-3-trifluoromethyl-5,6-dihydro-8H-imidazo[1,5-a]pyrazin-7-yl]-4-(2,4,5-trifluoro-phenyl)-butan-1-one hydrochloride]"
12,0.041,"N[C@@H](CC(=O)N1CCn2c(C(F)(F)F)nc(C(=O)N3CCNCC3)c2C1)Cc1cc(F)c(F)cc1F [Example 13, (R)-3-Amino-1-[1-(piperazine-1-carbonyl)-3-trifluoromethyl-5,6-dihydro-8H-imidazo[1,5-a]pyrazin-7-yl]-4-(2,4,5-trifluoro-phenyl)-butan-1-one dihydrochloride]"
13,0.047,"N[C@@H](CC(=O)N1CCn2c(C(F)(F)F)nc(C(=O)N3CC[C@@H](O)C3)c2C1)Cc1cc(F)c(F)cc1F [Example 14, (R)-3-Amino-1-[1-((R)-3-hydroxy-pyrrolidine-1-carbonyl)-3-trifluoromethyl-5,6-dihydro-8H-imidazo[1,5-a]pyrazin-7-yl]-4-(2,4,5-trifluoro-phenyl)-butan-1-one hydrochloride]"
14,0.025,"N[C@@H](CC(=O)N1CCn2c(C(F)(F)F)nc(C(=O)NC3CC3)c2C1)Cc1cc(F)c(F)cc1F [Example 15, (R)-7-[3-Amino-4-(2,4,5-trifluoro-phenyl)-butyryl]-3-trifluoromethyl-5,6,7,8-tetrahydro-imidazo[1,5-a]pyrazine-1-carboxylic acid cyclopropylamide hydrochloride]"
15,0.031,"CCOC(=O)c1nc(C(F)(F)F)n2c1CN(C(=O)C[C@H](N)Cc1cc(F)c(F)cc1F)CC2 [Example 23, (R)-7-[3-Amino-4-(2,4,5-trifluoro-phenyl)-butyryl]-3-trifluoromethyl-5,6,7,8-tetrahydro-imidazo[1,5-a]pyrazine-1-carboxylic acid ethyl ester hydrochloride]"
16,0.031,"CCOC(=O)OC(C)OC(=O)c1nc(C(F)(F)F)n2c1CN(C(=O)C[C@H](N)Cc1cc(F)c(F)cc1F)CC2 (stereo partly drawn) [Example 34, (R)-7-[3-Amino-4-(2,4,5-trifluoro-phenyl)-butyryl]-3-trifluoromethyl-5,6,7,8-tetrahydro-imidazo[1,5-a]pyrazine-1-carboxylic acid (1-ethoxycarbonyloxy)-ethyl ester hydrochloride]"
17,0.221,"CC(C)(C)OC(=O)c1nc(C(F)(F)F)n2c1CN(C(=O)C[C@H](N)Cc1cc(F)c(F)cc1F)CC2 [Example 36, (R)-7-[3-Amino-4-(2,4,5-trifluoro-phenyl)-butyryl]-3-trifluoromethyl-5,6,7,8-tetrahydro-imidazo[1,5-a]pyrazine-1-carboxylic acid tert-butyl ester hydrochloride]"
18,0.033,"CC(C)OC(=O)OC(C)OC(=O)c1nc(C(F)(F)F)n2c1CN(C(=O)C[C@H](N)Cc1cc(F)c(F)cc1F)CC2 (stereo partly drawn) [Example 37, (R)-7-[3-Amino-4-(2,4,5-trifluoro-phenyl)-butyryl]-3-trifluoromethyl-5,6,7,8-tetrahydro-imidazo[1,5-a]pyrazine-1-carboxylic acid 1-isopropoxycarbonyloxy-ethyl ester hydrochloride]"
19,0.184,"CC(OC(=O)OC1CCCCC1)OC(=O)c1nc(C(F)(F)F)n2c1CN(C(=O)C[C@H](N)Cc1cc(F)c(F)cc1F)CC2 (stereo partly drawn) [Example 38, (R)-7-[3-Amino-4-(2,4,5-trifluoro-phenyl)-butyryl]-3-trifluoromethyl-5,6,7,8-tetrahydro-imidazo[1,5-a]pyrazine-1-carboxylic acid (1-cyclohexyloxycarbonyloxy)-ethyl ester hydrochloride]"
20,0.016,"COC(=O)c1nc(C(F)(F)F)n2c1C(C)N(C(=O)C[C@H](N)Cc1cc(F)c(F)cc1F)CC2 (stereo partly drawn) [Example 39, (R)-7-[3-Amino-4-(2,4,5-trifluoro-phenyl)-butyryl]-8-methyl-3-trifluoromethyl-5,6,7,8-tetrahydro-imidazo[1,5-a]pyrazine-1-carboxylic acid methyl ester hydrochloride]"
21,0.314,"COC(=O)c1nc(C(F)(F)F)n2c1[C@H](C)N(C(=O)C[C@H](N)Cc1cc(F)c(F)cc1F)CC2 [Example 40, (R)-7-[3-Amino-4-(2,4,5-trifluoro-phenyl)-butyryl]-(S)-8-methyl-3-trifluoromethyl-5,6,7,8-tetrahydro-imidazo[1,5-a]pyrazine-1-carboxylic acid methyl ester hydrochloride]"
22,0.005,"COC(=O)c1nc(C(F)(F)F)n2c1[C@@H](C)N(C(=O)C[C@H](N)Cc1cc(F)c(F)cc1F)CC2 [Example 41, (R)-7-[3-Amino-4-(2,4,5-trifluoro-phenyl)-butyryl]-(R)-8-methyl-3-trifluoromethyl-5,6,7,8-tetrahydro-imidazo[1,5-a]pyrazine-1-carboxylic acid methyl ester hydrochloride]"
23,0.018,"CCNC(=O)c1nc(C(F)(F)F)n2c1CN(C(=O)C[C@H](N)Cc1cc(F)c(F)cc1F)CC2 [Example 42, (R)-7-[3-Amino-4-(2,4,5-trifluoro-phenyl)-butyryl]-3-trifluoromethyl-5,6,7,8-tetrahydro-imidazo[1,5-a]pyrazine-1-carboxylic acid ethylamide]"
24,0.063,"CCCCNC(=O)c1nc(C(F)(F)F)n2c1CN(C(=O)C[C@H](N)Cc1cc(F)c(F)cc1F)CC2 [Example 43, (R)-7-[3-Amino-4-(2,4,5-trifluoro-phenyl)-butyryl]-3-trifluoromethyl-5,6,7,8-tetrahydro-imidazo[1,5-a]pyrazine-1-carboxylic acid butylamide]"
25,0.052,"CCCNC(=O)c1nc(C(F)(F)F)n2c1CN(C(=O)C[C@H](N)Cc1cc(F)c(F)cc1F)CC2 [Example 44, (R)-7-[3-Amino-4-(2,4,5-trifluoro-phenyl)-butyryl]-3-trifluoromethyl-5,6,7,8-tetrahydro-imidazo[1,5-a]pyrazine-1-carboxylic acid propylamide]"
